Results published in publication PMC11062899, “De novo development of small cyclic peptides that are orally bioavailable” (Nature Chemical Biology, 2023).
Several values for one entry are separate records, joined by “and”; a condition that tells them apart may be missing. Equal values may be shown once. Read-outs that look alike come from different tables or passages of the source.

How the values were obtained:
[1] = Passive artificial membrane permeability (PAMPA)
rat α-thrombin = target: T1, rat α-thrombin (Rattus norvegicus, UniProt P18292); assay: Protease inhibition, Ki for rat α-thrombin (fluorogenic substrate Z-Gly-Gly-Arg-AMC); type: biochemical; conditions: for Slope normalized to DMSO (proteolytic substrate cleavage over time) / Rat alpha thrombin inhibition, slope normalized to DMSO: replicates R1-R3
T1 construct: rat α-thrombin (Molecular Innovations) were used at final concentrations of 2 nM and 3 nM; purchased Molecular Innovations
Method in brief: (§1)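 Inhibition was measured as AMC fluorescence from 50 μM substrate, monitored for 30 min at 25 °C, relative to a peptide-free control. Human and rat enzymes were present at 2 nM and 3 nM final, respectively, in 50 mM Tris-HCl pH 7.4, 150 mM NaCl, 10 mM MgCl2, 1 mM CaCl2. Ki derives from fitted IC50 via Cheng–Prusoff.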

[2] = Metabolic stability in rat liver microsomes (RLMs); conditions: rat, microsomes
porcine pancreatin = assay: Peptide stability in simulated intestinal fluid (SIF); type: in vitro ADME; conditions: after 8 h vs 0 h (TIC)
Method in brief: (§2)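 Peptide from a 1 mM DMSO stock was added to fluid pre-warmed at 37 °C. SGF was pH 1.2 NaCl with porcine pepsin (0.32 g per 100 ml), and SIF was pH 6.8 potassium phosphate with porcine pancreatin (1 g per 100 ml). Supernatant peptide was quantified by LC–MS, with residual expressed as T1/T0.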

[3] = as above; type: in vitro ADME, porcine; conditions: pig, simulated gi fluid; 8 h, 37 °C, pH 6.8; read-out: Proteolytic stability: SIF (8 h) % remaining
Method in brief: as §2

human α-thrombin = human α-thrombin (Homo sapiens, UniProt P00734); assay: Protease inhibition, Ki for human α-thrombin (fluorogenic substrate Z-Gly-Gly-Arg-AMC); type: biochemical; conditions: for Human alpha thrombin inhibition, slope normalized to DMSO: replicates R1-R3
Method in brief: as §1

[4] = peptide 1.33E+02 uM, slope of proteolytic substrate cleavage over time

CN1CCC(=O)NCCSCCS(=O)(=O)CCSC[C@H](NC(=O)c2ccc(Cl)s2)C(=O)N[C@@H](Cc2ccccc2)C1=O [compound 14]
PAMPA permeability: % permeability ([1]; 50 μM, 12–18 h, acceptor concentration relative to equilibrium): 1.27 ± 0.67% | Papp at 50 μM ([1]; PAMPA, pH 7.4): 0.0776 ×10⁻⁶ cm/s | Permeability% Average ([1]; PAMPA, average of R1-R3): 1.3% | Permeability% R1 ([1]; PAMPA, replicate R1, TIC of top well sample relative to sample at theoretical equilibrium): 2.04% | Permeability% R3 ([1]; PAMPA, replicate R3, TIC of top well sample relative to sample at theoretical equilibrium): 1.01% | Ki (rat α-thrombin; average of R1-R3, read-out: Ki Average): 357 nM | Slope normalized to DMSO (proteolytic substrate cleavage over time) (rat α-thrombin; peptide 1.02E-03 uM): 100.5 and 96.1 and 105.7 | Slope normalized to DMSO (proteolytic substrate cleavage over time) (rat α-thrombin; peptide 1.04E+00 uM): 47.3 and 45.5 and 46.2 | Slope normalized to DMSO (proteolytic substrate cleavage over time) (rat α-thrombin; peptide 1.27E-04 uM): 98.2 and 95.5 and 104.0 | Slope normalized to DMSO (proteolytic substrate cleavage over time) (rat α-thrombin; peptide 1.30E-01 uM): 88.1 and 88.0 and 95.1 | Rat alpha thrombin inhibition, slope normalized to DMSO (rat α-thrombin; [4]): 29.3 and 31.0 and 24.5 | Slope normalized to DMSO (proteolytic substrate cleavage over time) (rat α-thrombin; peptide 1.63E-02 uM): 95.3 and 90.7 and 94.2 | Rat alpha thrombin inhibition, slope normalized to DMSO (rat α-thrombin; peptide 1.67E+01 uM): 11.1 and 9.5 and 16.8 | Slope normalized to DMSO (proteolytic substrate cleavage over time) (rat α-thrombin; peptide 2.03E-03 uM): 96.6 and 95.4 and 92.0 | Rat alpha thrombin inhibition, slope normalized to DMSO (rat α-thrombin; peptide 2.08E+00 uM): 34.7 and 33.7 and 44.2 | Slope normalized to DMSO (proteolytic substrate cleavage over time) (rat α-thrombin; peptide 2.54E-04 uM): 95.8 (2×) and 100.3 | Slope normalized to DMSO (proteolytic substrate cleavage over time) (rat α-thrombin; peptide 2.60E-01 uM): 75.1 and 76.7 and 74.0 | Slope normalized to DMSO (proteolytic substrate cleavage over time) (rat α-thrombin; peptide 3.18E-05 uM): 100.9 and 96.6 and 106.2 | Slope normalized to DMSO (proteolytic substrate cleavage over time) (rat α-thrombin; peptide 3.26E-02 uM): 100.1 and 92.2 and 91.8 | Rat alpha thrombin inhibition, slope normalized to DMSO (rat α-thrombin; peptide 3.33E+01 uM): 8.8 and 9.0 and 13.6 | Slope normalized to DMSO (proteolytic substrate cleavage over time) (rat α-thrombin; peptide 4.07E-03 uM): 100.3 and 98.9 and 95.8 | Rat alpha thrombin inhibition, slope normalized to DMSO (rat α-thrombin; peptide 4.17E+00 uM): 29.3 and 26.2 and 29.7 | Slope normalized to DMSO (proteolytic substrate cleavage over time) (rat α-thrombin; peptide 5.09E-04 uM): 99.8 and 96.7 and 105.4 | Slope normalized to DMSO (proteolytic substrate cleavage over time) (rat α-thrombin; peptide 5.21E-01 uM): 62.1 and 60.1 and 59.5 | Slope normalized to DMSO (proteolytic substrate cleavage over time) (rat α-thrombin; peptide 6.36E-05 uM): 99.5 and 99.0 and 105.5 | Slope normalized to DMSO (proteolytic substrate cleavage over time) (rat α-thrombin; peptide 6.51E-02 uM): 92.1 and 90.2 and 94.2 | Rat alpha thrombin inhibition, slope normalized to DMSO (rat α-thrombin; peptide 6.67E+01 uM): 22.0 and 23.9 and 12.4 | Slope normalized to DMSO (proteolytic substrate cleavage over time) (rat α-thrombin; peptide 8.14E-03 uM): 88.9 and 94.1 and 99.5 | Rat alpha thrombin inhibition, slope normalized to DMSO (rat α-thrombin; peptide 8.33E+00 uM): 16.6 and 15.4 and 23.2 | IC50 (rat α-thrombin; single replicates R1-R3, read-out: IC50): 640 nM and 631 nM and 666 nM | Ki (rat α-thrombin; single replicates R1-R3, read-out: Ki): 354 nM and 349 nM and 368 nM | microsomal CLint ([2]; CL (ul/min/mg protein) R1, RLM CL, replicate R1): 78.3 µL/min/mg | microsomal CLint ([2]; CL (ul/min/mg protein) R2, RLM CL, replicate R2): 132 µL/min/mg | microsomal CLint ([2]; CL (ul/min/mg protein) R3, RLM CL, replicate R3): 141 µL/min/mg | half-life ([2]; Half Life (min) R1, RLM metabolic stability, replicate R1, 0-60 min): 17.7 min | half-life ([2]; Half Life (min) R2, RLM metabolic stability, replicate R2, 0-60 min): 10.5 min | half-life ([2]; Half Life (min) R3, RLM metabolic stability, replicate R3, 0-60 min): 9.82 min | microsomal CLint ([2]; Metabolic stability: RLM CL (ul/min/mg), RLMs, mean and SD, three measurements): 117 ± 28 µL/min/mg | microsomal CLint ([2]; Metabolic stability: RLM CL R1, summary table, rounded, replicate R1): 78.3 µL/min/mg | microsomal CLint ([2]; Metabolic stability: RLM CL R2, summary table, rounded, replicate R2): 132 µL/min/mg | microsomal CLint ([2]; Metabolic stability: RLM CL R3, summary table, rounded, replicate R3): 141 µL/min/mg | half-life ([2]; pH 7.4, Metabolic stability: Half life T1/2 (min), RLMs, mean and SD, three measurements): 12.7 ± 3.6 min | microsomal CLint ([2]; pH 7.4, Metabolic stability: RLM CL Average, summary table, average of R1-R3): 117 µL/min/mg | SIF stability, Residual peptide Average (porcine pancreatin; average of R1-R3): 87.22 | SIF stability, Residual peptide (porcine pancreatin; single replicates R1-R3): 90.22 and 74.69 and 96.74 | remaining at 8 h [3]: 87 ± 11% | IC50 (human α-thrombin; human alpha thrombin, individual replicates R1-R3, read-out: IC50): 1240 nM and 961 nM and 880 nM | Ki (human α-thrombin; human alpha thrombin, individual replicates R1-R3, read-out: Ki): 952 nM and 740 nM and 678 nM | Ki (human α-thrombin; human alpha thrombin, average of R1-R3, read-out: Ki Average): 790 nM | Human alpha thrombin inhibition, slope normalized to DMSO (human α-thrombin; peptide 1.02E-03 uM): 99.6 and 102.5 and 100.4 | Human alpha thrombin inhibition, slope normalized to DMSO (human α-thrombin; peptide 1.04E+00 uM): 62.7 and 63.2 and 64.7 | Human alpha thrombin inhibition, slope normalized to DMSO (human α-thrombin; peptide 1.27E-04 uM): 101.4 and 100.0 and 103.5 | Human alpha thrombin inhibition, slope normalized to DMSO (human α-thrombin; peptide 1.30E-01 uM): 93.3 and 94.2 and 91.8 | Human alpha thrombin inhibition, slope normalized to DMSO (human α-thrombin; [4]): 35.6 and 42.1 and 48.0 | Human alpha thrombin inhibition, slope normalized to DMSO (human α-thrombin; peptide 1.63E-02 uM): 100.3 and 97.9 and 93.0 | Human alpha thrombin inhibition, slope normalized to DMSO (human α-thrombin; peptide 1.67E+01 uM): 19.0 and 23.6 and 27.7 | Human alpha thrombin inhibition, slope normalized to DMSO (human α-thrombin; peptide 2.03E-03 uM): 98.3 and 97.0 and 102.8 | Human alpha thrombin inhibition, slope normalized to DMSO (human α-thrombin; peptide 2.08E+00 uM): 53.1 and 49.4 and 51.7 | Human alpha thrombin inhibition, slope normalized to DMSO (human α-thrombin; peptide 2.54E-04 uM): 100.9 and 99.7 | Human alpha thrombin inhibition, slope normalized to DMSO (human α-thrombin; peptide 2.60E-01 uM): 86.0 and 78.5 and 87.5 | Human alpha thrombin inhibition, slope normalized to DMSO (human α-thrombin; peptide 3.18E-05 uM): 105.6 and 95.1 and 100.8 | Human alpha thrombin inhibition, slope normalized to DMSO (human α-thrombin; peptide 3.26E-02 uM): 99.1 and 97.3 and 99.5 | Human alpha thrombin inhibition, slope normalized to DMSO (human α-thrombin; peptide 3.33E+01 uM): 14.9 and 14.8 and 17.4 | Human alpha thrombin inhibition, slope normalized to DMSO (human α-thrombin; peptide 4.07E-03 uM): 104.1 and 99.4 and 102.2 | Human alpha thrombin inhibition, slope normalized to DMSO (human α-thrombin; peptide 4.17E+00 uM): 44.0 and 45.0 and 45.3 | Human alpha thrombin inhibition, slope normalized to DMSO (human α-thrombin; peptide 5.09E-04 uM): 89.0 and 97.2 and 100.9 | Human alpha thrombin inhibition, slope normalized to DMSO (human α-thrombin; peptide 5.21E-01 uM): 80.8 and 75.1 and 78.9 | Human alpha thrombin inhibition, slope normalized to DMSO (human α-thrombin; peptide 6.36E-05 uM): 99.9 and 99.1 and 102.2 | Human alpha thrombin inhibition, slope normalized to DMSO (human α-thrombin; peptide 6.51E-02 uM): 97.0 and 92.8 and 96.0 | Human alpha thrombin inhibition, slope normalized to DMSO (human α-thrombin; peptide 6.67E+01 uM): 27.9 and 32.4 and 47.7 | Human alpha thrombin inhibition, slope normalized to DMSO (human α-thrombin; peptide 8.14E-03 uM): 99.8 and 97.9 and 99.0 | Human alpha thrombin inhibition, slope normalized to DMSO (human α-thrombin; peptide 8.33E+00 uM): 29.9 and 28.6 and 29.1
